Article PMC4891693, “Discovery of prenylated flavonoids with dual activity against influenza virus and Streptococcus pneumoniae” (Scientific Reports, 2016)
≈ marks a conversion by molar mass, not a printed value. Where “and” joins values, the source holds several entries; their conditions need not be identical. Identical values can stand only once. Entries after “also recorded” stand apart in the source; their conditions may differ. Like-named read-outs stand apart in the source and are kept apart here.

Assays:
[1] = system: NA of S. pneumoniae DSM20566 (precipitated bacterial proteins); test: Hemagglutination (HA)-based NA inhibition assay, bacterial; assay type: biochemical, Streptococcus pneumoniae; details: pure compounds; total protein of DSM20566; human erythrocytes; highest tested 100 μM
Description: Inhibition of pneumococcal NAs circumvents hemagglutination.

human erythrocytes [2] = system: human erythrocytes
[3] = system: Madin-Darby canine kidney (MDCK) cells; test: Cytotoxicity in MDCK cells; details: read-out: CC50 in MDCK cells; pure compounds; 72 h; highest tested 100 μM
[4] = system: human lung carcinoma cells (A549); test: Cytotoxicity in A549 cells; details: read-out: CC50 in A549 cells; pure compounds; 72 h; highest tested 100 μM
human erythrocytes [5] = test: Interference with hemagglutination in the viral HA assay
[6] = system: S. pneumoniae DSM20566 biofilm; test: Scanning electron microscopy of pneumococcal biofilm on glass slides; assay type: cell-based, Streptococcus pneumoniae; details: 10 μM, 7 days
[7] = system: IAV Jena/8178/2009 (8178/09); test: microbe, parasite or virus in culture; assay type: cell-based, Influenza A virus; details: 48 h, read-out: IC50 of CPE IAV 8178/09
[8] = target: influenza virus A/WSN/33 NA (Influenza A virus, UniProt P03470); test: biochemical
influenza virus A/WSN/33 = test: microbe, parasite or virus in culture; assay type: cell-based; details: read-out: IC50 of CPE assay (A/WSN/33)
human erythrocytes [9] = system: human erythrocytes; remark: listed apart in the source
in vitro [10] = details: dog
in vitro [11] = details: human
[12] = Cytotoxicity in MDCK cells; details: dog
[13] = Cytotoxicity in A549 cells; details: human
[14] = system: IAV 8178/09 in A549 cells; assay type: cell-based, Influenza A virus; details: 50 µM
[15] = system: Madin-Darby canine kidney (MDCK) cells
[16] = system: human lung carcinoma cells (A549)
[17] = pure compounds, human erythrocytes, 2 h at 4 °C
[18] = treatment from 3 h after inoculation

Sequence of influenza virus A/WSN/33 NA (P03470 whole entry, looked up): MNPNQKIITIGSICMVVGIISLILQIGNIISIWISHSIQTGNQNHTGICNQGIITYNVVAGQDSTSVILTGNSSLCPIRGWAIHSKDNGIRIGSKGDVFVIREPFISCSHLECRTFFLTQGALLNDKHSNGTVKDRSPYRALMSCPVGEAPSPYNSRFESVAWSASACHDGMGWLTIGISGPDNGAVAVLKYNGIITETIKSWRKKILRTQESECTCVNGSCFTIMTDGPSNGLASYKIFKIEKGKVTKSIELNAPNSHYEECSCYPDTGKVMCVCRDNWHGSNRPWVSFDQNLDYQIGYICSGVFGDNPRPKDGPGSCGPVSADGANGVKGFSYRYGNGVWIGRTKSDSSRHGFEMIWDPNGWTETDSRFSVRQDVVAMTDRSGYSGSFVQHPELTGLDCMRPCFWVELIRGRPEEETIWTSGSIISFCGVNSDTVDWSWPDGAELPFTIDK

Row | Compound | MIC in HA assay against S. pneumoniae DSM20566 [1] | sample concentrations provoking induction of erythrocyte lysis in bacterial HA assay (human erythrocytes [2]) | sample concentrations provoking prevention of virus-induced hemagglutination in viral HA assay (human erythrocytes [5]; [17]) | IC50 ([7]; Influenza A virus, MDCK) [µM] | IC50 [8] [µM] | IC50 (influenza virus A/WSN/33; WSN, MDCK) [µM] | sample concentrations provoking induction of erythrocyte lysis in viral HA assay (human erythrocytes [9]) | CC50 at 72 h (in vitro [10]) [µM] | CC50 at 72 h (in vitro [11]) [µM] | sample concentrations provoking prevention of virus-induced hemagglutination in viral HA assay (human erythrocytes [5]) | also measured
1 | sanggenon D [Compound 3] | 31.6 µM and 31.6 ± 0.00 µM | 100 µM | no |  |  |  |  |  |  |  | CC50 [3]: 99 ± 8.7 µM; CC50 [4]: 79.9 ± 11.2 µM; sample concentrations provoking induction of erythrocyte lysis in viral HA assay (human erythrocytes [5]; [17]): 31.6 to 100 µM
2 | CCC(CC)O[C@@H]1C=C(C(=O)O)C[C@H](N)[C@H]1NC(C)=O [Oseltamivir carboxylate GS4071, reference compound] | 2.08 ± 1.25 µM (≈ 0.591 µg/mL) |  |  |  |  |  |  |  |  |  | biofilm formation by scanning electron microscopy [6, 18]: did not impair biofilm formation
3 | COc1cc([C@H]2Oc3cc([C@H]4Oc5cc(O)cc(O)c5C(=O)[C@@H]4O)ccc3O[C@@H]2CO)ccc1O (racemic) [Compound 17, (±)-silybin] |  | no | no | > 100 | 9.18 ± 1.5 | > 100 | no | > 100 | > 100 |  | 
4 | O=C1CC(c2ccc(O)cc2O)Oc2cc(O)cc(O)c21 (stereo not drawn) [Compound 12, 2',4',5,7-tetrahydroxyflavanone] | 72.6 ± 37.5 µM (≈ 20.9 µg/mL) | no |  | > 100 | 77.7 ± 5.56 | 81.3 ± 10.4 | no | > 100 | > 100 | no | 
5 | O=C1CC(c2ccc(O)c(O)c2)Oc2cc(O)cc(O)c21 (racemic) [Compound 11, (±)-eriodictyol] | 45.3 ± 30.6 µM (≈ 13.1 µg/mL) | no |  | 78.3 ± 5.72 | > 100 | 68.4 ± 12.9 | no |  |  | no | CC50 at 72 h [12]: > 100 µM; CC50 at 72 h [13]: > 100 µM
6 | O=c1cc(-c2ccc(O)c(O)c2)oc2cc(O)cc(O)c12 [Compound 15, luteolin] | 23.0 ± 11.8 µM (≈ 6.58 µg/mL) |  |  |  | > 100 |  |  |  |  | no | CC50 at 72 h [12]: 23 ± 0.18 µM; CC50 at 72 h [13]: > 100 µM
7 | COc1ccc(C2CC(=O)c3c(O)cc(O)cc3O2)cc1O (racemic) [Compound 10, (±)-hesperetin] |  | no |  | > 100 | > 100 | > 100 | no |  |  | no | CC50 (in vitro [10]): > 100 µM; CC50 (in vitro [11]): > 100 µM
8 | CC(C)=CCC/C(C)=C/Cc1c(O)ccc([C@@H]2CC(=O)c3c(O)cc(O)cc3O2)c1O [Compound 5, sanggenol A] | 31.6 µM and 31.6 ± 0.00 µM |  |  |  | 65.5 ± 9.29 | 35.4 ± 14.6 |  | 42.1 ± 4.45 | > 100 | 100 or no | viral yield in A549 cells in the presence of NanA of DSM20566 [14]: 31.8 ± 4.5%; virus yield in A549 cells in the absence of NanA [14]: 5.1 ± 1.8%; sample concentrations provoking induction of erythrocyte lysis in viral HA assay (human erythrocytes [9]; human): 100 or no; sample concentrations provoking induction of erythrocyte lysis in bacterial HA assay (human erythrocytes [2]; human): 100 µM
9 | COc1c(O)cc2c(c1O)C(=O)CC(c1ccccc1)O2 (stereo not drawn) [Compound 8, 2,3-dihydro-5,7-dihydroxy-6-methoxy-2-phenyl-4H-1-benzopyran-4-one] |  | no | no | > 100 | > 100 | > 100 | no | > 100 | > 100 |  | 
10 | O=c1c(O)c(-c2ccc(O)cc2O)oc2cc(O)cc(O)c12 [Compound 16, morin] | 23.0 ± 11.8 µM (≈ 6.95 µg/mL) | no |  | 70.1 ± 9.83 | 62 ± 8.03 | > 100 | no | > 100 | > 100 | no | 
11 | sanggenon G [Compound 4] | 5.4 µM and 5.44 ± 3.95 µM | 31.6 to 100 µM | 3.1 to 100 µM |  |  |  |  |  |  |  | IC50 [7]: 8.78 ± 0.89 µM; IC50 ([8]; read-out: IC50 in FL assay (influenza virus A/WSN/33 NA)): 61.7 ± 17.8 µM; IC50 (influenza virus A/WSN/33): 15.2 ± 14 µM; CC50 [15]: > 100 µM; CC50 [16]: 72.9 ± 17.2 µM; sample concentrations provoking induction of erythrocyte lysis in viral HA assay (human erythrocytes [5]; [17]): 10 to 100 µM
12 | COc1c(CC=C(C)C)cc([C@@H]2CC(=O)c3c(O)cc(O)cc3O2)cc1CC=C(C)C [Compound 27, abyssinone-V 4'-methyl ether] | 7.72 ± 3.53 µM (≈ 3.26 µg/mL) |  |  |  | 33.1 ± 11.7 |  | no | 2.29 ± 0.1 | > 100 | 3.16 to 100 µM | viral yield in A549 cells in the presence of NanA of DSM20566 [14]: 7.4 ± 1.2%; virus yield in A549 cells in the absence of NanA [14]: 3.2 ± 1.4%; biofilm formation by scanning electron microscopy [6, 18]: completely prevented biofilm formation; also recorded: strong effect; biofilm formation by scanning electron microscopy ([6]; treatment from 6 h after inoculation): no biofilm was formed; biofilm formation by scanning electron microscopy ([6]; treatment from 9 h after inoculation): affected biofilm formation weakly; biofilm formation by scanning electron microscopy ([6]; treatment from 48 h after inoculation): had no effect; sample concentrations provoking induction of erythrocyte lysis in bacterial HA assay (human erythrocytes [2]; human): 31.6 to 100 µM
13 | O=c1cc(-c2ccc(O)c(O)c2O)oc2cc(O)cc(O)c12 [Compound 14, 2',3',4',5,7-pentahydroxyflavone] | 72.6 ± 37.5 µM (≈ 21.9 µg/mL) | no |  | > 100 | > 100 | > 100 | no | > 100 | > 100 | no | 
